Reference: paper PMC12388496, “Discovery of (E)-1,3-Diphenyl-2-Propen-1-One Derivatives as Potent and Orally Active NLRP3 Inflammasome Inhibitors for Colitis” (Molecules, 2025)

What was measured:
BMDM cells = assay: Flow cytometry apoptosis assay kit (pyroptosis) in BMDM cells under LPS/Nigericin; assay type: cell-based, mouse; details: vs LPS/Nigericin group, more pronounced at higher concentrations
Description: Pyroptosis is a form of programmed cell death, typically triggered by the activation of inflammasomes within the cell. It is characterized by the rupture of the cell membrane, releasing cellular contents (such as Lactate Dehydrogenase, LDH), which enhances the inflammatory response. Unlike apoptosis, pyroptosis is initiated through the activation of inflammasomes, involving distinct molecular mechanisms, and is often accompanied by cell swelling and rupture. In contrast, apoptosis is triggered by the activation of Caspase-3, leading to systemic degradation within the cell while maintaining the integrity of the cell membrane. The cell undergoes controlled self-degradation without provoking an immune response. […]
Figure 4 F14 inhibits NLRP3 inflammasome activation, leading to cell pyroptosis. […] All values given are best readings. / LPS/Nigericin: Q1-UL 0.83%, Q1-UR 79.53%, Q1-LL 14.81%, Q1-LR 4.83% uncertain / F14 10 μM: Q1-UL 0.52%, Q1-UR 48.44%, Q1-LL 45.87%, Q1-LR 5.17% uncertain / F14 5 μM: Q1-UL 1.05%, Q1-UR 58.47%, Q1-LL 36.16%, Q1-LR 4.32% uncertain / F14 2.5 μM: Q1-UL 0.97%, Q1-UR 69.26%, Q1-LL 24.69%, Q1-LR 5.08% uncertain / The Control plot in panel A (Q1-UL 0.83%, Q1-UR 24.77%, Q1-LL 69.90%, Q1-LR 4.49%) is left out because it is not a substance. / LPS/Nigericin is the stimulus rather than a test compound. […]

NLRC4 inflammasome = NLRC4 inflammasome activation induced by S.typhi in BMDMs; assay type: cell-based, mouse; details: F14 10 μM, LPS-primed BMDMs
Description: The NLRP3 inflammasome can be activated by various stimuli, such as microbial toxins and urate crystals. This process plays a central role in the pathogenesis of many inflammatory diseases. To assess whether F14 exerts a broad-spectrum inhibitory effect on NLRP3 inflammasome activation, we used three different activators—ATP, MSU, and Nigericin to stimulate BMDMs. […] Among the inflammasome family, NLRC4 and AIM2 are also protein complexes involved in the innate immune response, playing key roles in inflammatory regulation during infection and tissue damage. Poly (dA:dT) was used to induce AIM2 activation, while S.typhi was employed to stimulate NLRC4 activation.
The LPS concentration was 200 ng/mL to pretreat BMDM cells for 3 h, then F14 (10 μM) was added to treat the cells for 30 min, and then each inducer—Nigericin (10 μM, 0.5 h), ATP (2.5 mM, 0.5 h), MSU (150 μg/mL, 4 h), S.typhi (4 h), and poly-(dA:dT) (0.5 μg/mL, 4 h)—were added for stimulation. (A) F14 has a broad-spectrum inhibitory effect on NLRP3 inflammasome activation. (B) F14 has a specific inhibitory effect on NLRP3 inflammasome activation. Data are presented as the mean ± SEM (n = 3). *** p < 0.001 vs. the model group. NS, not significant.

[1] = tested on: IL-1β secretion in BMDM cells (NLRP3 inflammasome); assay: ELISA of IL-1β secretion in LPS/nigericin-treated BMDM cells; assay type: cell-based; details: Mus musculus
Method: When L929 cells reach the logarithmic phase, collect the cell supernatant. Filter the supernatant using a 0.22 μm filter and store it at −20 °C for future use. The 7-week-old C57BL/6 mice were selected as the source of primary bone marrow macrophages. The mice were euthanized using the cervical dislocation method. The ends of the femurs were cut, and the bone marrow was flushed into a 15 mL centrifuge tube using a 5 mL syringe. Once all the bone marrow was collected, an appropriate amount of red blood cell lysis buffer was added to the centrifuge tube. The mixture was incubated for 3–5 min, with repeated pipetting to thoroughly lyse the red blood cells. The cells were then centrifuged and collected. Add 30–40% L929 cell supernatant or M-CSF stimulatory factor to the culture dish. Culture the cells in a cell incubator at 37 °C with 5% CO2. Observe the cell condition daily, and once most cells have adhered to the surface, proceed with subsequent experiments.
Inoculate 1.0 × 10^5 BMDMs cells per well into a 96 well plate and culture overnight. Stimulate the cells with lipopolysaccharide (LPS) at a concentration of 0.2 μg/mL for 3 h, then add different concentrations of the test compounds and incubate for 30 min. Finally, add Nigericin at a concentration of 10 μM to continue the induction for 30 min. Collect the cell supernatant and measure the IL-1β secretion level in the supernatant using an ELISA kit, following the instructions provided, and calculate the IC50 value based on the relevant calculations. To ensure the accuracy and reliability of the experimental results, all experiments were repeated three times, with each experiment performed independently.

THP-1 cells = assay: LDH release assay; assay type: cell-based; details: NLRP3 inflammasome activation by LPS/Nigericin
Description: Pyroptosis is a form of programmed cell death, typically triggered by the activation of inflammasomes within the cell. It is characterized by the rupture of the cell membrane, releasing cellular contents (such as Lactate Dehydrogenase, LDH), which enhances the inflammatory response. Unlike apoptosis, pyroptosis is initiated through the activation of inflammasomes, involving distinct molecular mechanisms, and is often accompanied by cell swelling and rupture. In contrast, apoptosis is triggered by the activation of Caspase-3, leading to systemic degradation within the cell while maintaining the integrity of the cell membrane. The cell undergoes controlled self-degradation without provoking an immune response. Inhibiting pyroptosis is crucial for alleviating inflammation and promoting tissue repair. To investigate the effect of compound F14 on pyroptosis, we employed flow cytometry and lactate dehydrogenase (LDH) release assays for systematic analysis. Flow cytometry was used to assess the impact of F14 on pyroptosis under inflammatory conditions.
Count the THP-1 cells and inoculate them into a 96-well plate. Add 50 ng/mL PMA and culture the cells at 37 °C in a 5% CO2 incubator for 24 h. Add LPS-containing medium and stimulate the cells for 3 h to induce an inflammatory response. Add F14 and incubate for 1 h, then add Nigericin and stimulate for 30 min to induce pyroptosis. […]

For `Cc1ccc(C(=O)/C=C/c2cccc(O)c2)c(C)c1` [Compound F14, (E)-1-(2,4-dimethylphenyl)-3-(3-hydroxyphenyl)propyl-2-en-1-one], which “viable cell percentage and late apoptotic cell percentage” value (BMDM cells) is on record?
The value was “significantly improved”.

What about the “activation of NLRC4 inflammasome” value (NLRC4 inflammasome) of the same compound?
Its value is “no effect”.

What about the inhibition at 20 µM ([1]; 20 µM, LPS/nigericin-treated BMDM cells, mean ± S.E.M. (n = 3), read-out: IL-1β Inhibition Rate (%)) of the same compound?
Its inhibition at 20 µM is 95.4 ± 2.56%.

And the IC50 ([1]; BMDM, LPS/nigericin, three independent experiments, read-out: IL-1β release IC50 in BMDMs)?
Its IC50 is 0.74 µM.

What about the LDH release (THP-1 cells) of the same compound?
The LDH release was “decreased in a concentration-dependent manner”.
